Assay results: US8936787B2, “Peptides promoting lipid efflux” (The United States of America as represented by the …, priority 2008, dated 2015)
Entries after “also recorded” stand apart in the source; their conditions may differ. Square brackets hold non-standard residues; d marks the D form. Ends that are not written are not given here. Peptide text beside a SMILES is read from it.

How the values were obtained:
ABCA1 cells [1] = test: LDH release from ABCA1 cells; type: cell-based, human; details: 40 μg/ml for 18 hours
Method: (§1) Cell fixation was performed by a 10 minute treatment with 3% paraformaldehyde in phosphate buffered saline (PBS), followed by three washes with blank media. Lactate dehydrogenase (LDH) release from cells into the media was measured enzymatically (Roche Diagnostics, Indianapolis, Ind.) and expressed, after subtraction of LDH released into blank media, as the percentage of total cell LDH. Total cell LDH was determined after cell solubilization with 1% Triton X-100.
(§2) The microsolubilization of the plasma membrane of cells could, therefore, be potentially cytotoxic, but no morphologic effect was observed on the cells after incubation with the peptides or apoA-I, during the efflux experiments. Incubation of the cells with L-37pA and D-37pA at the maximum concentration and time used for the efflux studies (40 μg/ml for 18 hours) did, however, consistently result in the release of a small amount of LDH from both cell lines (control cells: L-37pA (6.1%±0.2), D-37pA (6.6%±0.1); ABCA1 cells: L-37pA (4.3%±0.04), D-37pA (5.7%±0.1)).

control cells = test: LDH release from control cells; type: cell-based; details: 40 μg/ml for 18 hours
Method: as §1, §2

C57B1/6 mice = test: Plasma triglycerides in C57B1/6 mice, 18A-C-II; type: in vivo; details: 1 mg (30 mg/kg) co-injected
Method: FIG. 18 is a graph illustrating the ability of 18A-C-II:POPC peptide (peptide with SEQ ID NO: 70) to prevent hypertriglyceridemia. The 18A-C-II:POPC peptide was lipidated with POPC at the ratio of 1:7. Hypertriglyceridemia was induced in C57B1/6 mice by a 2 mg (60 mg/kg) bolus intravenous (IV) injection of free 5A peptide (Δ). […] In addition, a single IV dose of 1 mg of the 18A-C-II:POPC peptide lowered the plasma triglyceride levels in normal C57B1 mice (□) compared to saline (⋄).
18A-C-II peptide (SEQ ID NO: 70) was complexed with POPC at a 1:7 molar ratio using a co-lyophilization procedure by which the free peptide and POPC were co-dissolved in glacial acetic acid and lypophilized. The dry powder was reconstituted with saline and heated between 37° C. to 50° C. to reconstitution, which results in a clear solution of particles containing both the 18A-C-II peptide and POPC.
Hypertriglyceridemia was induced in C57B1/6 mice by a 2 mg (60 mg/kg) bolus IV injection of free 5A peptide (A). […] In addition, a single IV dose of 1 mg of the 18A-C-II:POPC peptide lowered the plasma triglyceride levels in normal C57B1 mice (□) compared to saline (⋄).

BHK and BHK-ABCA1 cells = test: Cholesterol efflux from BHK and BHK-ABCA1 cells; type: cell-based; details: 20 ug/ml free peptide, 18 hours
Method: FIG. 23 is a graph illustrating the effect of 18A-C-II peptide on cholesterol efflux. BHK and BHK-ABCA1 cells were loaded with ^3H-cholesterol for 24 hours at 37° C. and then 20 ug/ml of the free 18A-C-II peptide was added as cholesterol acceptor to efflux for 18 hours. Percentage efflux was calculated by subtracting the radioactive counts in the blank from the radioactive counts in the presence of an acceptor and then dividing the result by the sum of the radioactive counts in the medium plus the cell fraction.
The effect of 18A-C-II peptide on cholesterol efflux was investigated by loading BHK and BHK-ABCA1 cells with ^3H-cholesterol for 24 hours at 37° C. and then adding 20 ug/ml of the free 18A-C-II peptide as cholesterol acceptor to efflux for 18 hours. Percentage efflux was calculated by subtracting the radioactive counts in the blank from the radioactive counts in the presence of an acceptor and then dividing the result by the sum of the radioactive counts in the medium plus the cell fraction.

[2] = test system: HeLa cells stably transfected with human ABCA1 cDNA (ABCA1 cells); test: Cholesterol and phospholipid efflux from ABCA1 cells; type: cell-based; details: for cholesterol efflux from ABCA1 cells to detergent: sublytic concentration (taurodeoxycholate 0.02%, 1 hour)
Method: (§3) Percentage efflux was calculated after subtracting the radioactive counts in the blank media (αMEM plus 1 mg/ml of BSA), and expressed as the percent of total radioactive counts removed from the cells during the efflux period.
as §1

[3] = test system: HeLa cells transfected with only a hygromycin-resistant control plasmid (control cells); test: Cholesterol and phospholipid efflux from control cells; type: cell-based; details: for lipid (cholesterol and phospholipid) efflux from control cells: 18 hours
Method: as §3, §1

red blood cells = test: Red blood cell hemolysis assay; type: cell-based; details: 1 hour at 37° C., maximum dose tested
Method: Red blood cells were incubated with the indicated concentration of the peptides for 1 hour at 37° C. Results are expressed as the mean of triplicates ±1 SD.
Approximately 25% of the red blood cells were lysed after 1 hour at the maximum dose tested (FIG. 9). Overall, the modified peptides containing the Ala substitutions were less cytotoxic, and the degree of cytotoxicity closely correlated with the number of Ala substitutions.

[4] = test system: Tangier disease fibroblast cell line with a truncated non-functional ABCA1 transporter; test: Cholesterol efflux from Tangier disease fibroblasts; type: cell-based; details: 10 μg/ml, 18 hour
Method: (§4) FIG. 5 is a graph illustrating ABCA1-independent efflux of cholesterol from Tangier disease fibroblasts. Normal skin fibroblasts (open bars) and Tangier disease skin fibroblasts (solid bars) were examined for their ability to efflux cholesterol over an 18 hour period when treated with 10 μg/ml apoA-I (A), 10 μg/ml L-37pA (L), and 10 μg/ml D-37pA (D). Results are expressed as the mean of triplicates ±1 SD.
(§5) In order to confirm that the residual lipid efflux from the control cells to L-37pA and D-37pA (see FIG. 1) was not due to a low level of endogenous ABCA1, a Tangier disease fibroblast cell line with a truncated non-functional ABCA1 transporter (Remaley et al., Proc. Natl. Acad. Sci. USA 96:12685-12690, 1999) was evaluated for lipid efflux (FIG. 5).

Normal skin fibroblasts = test: Cholesterol efflux from normal skin fibroblasts; type: cell-based; details: 10 μg/ml, 18 hour
Method: as §4, §5

ABCA1 cells [5] = test: Competitive binding of radiolabeled L-37pA to ABCA1 cells; set-up: species or system human; details: 8 μM, the maximum concentration tested; 4° C.
Method: FIGS. 7A-7B are a pair of graphs illustrating the competitive binding of L-37pA peptide to ABCA1 transfected cells and control cells. ABCA1 cells (FIG. 7A) and control cells (FIG. 7B) were incubated for 3 hours at 4° C. with the indicated concentration of the competitor proteins [L-37pA (triangle), D-37pA (open square), apoA-I (closed circle), L2D-37pA (star), and L3D-37pA (open circle)] and were then washed and incubated for 1 hour at 4° C. with 1 μg/ml of radiolabeled L-37pA peptide. Results are expressed as the mean of triplicates ±1 SD.
The L-37pA peptide was labeled with ^125I using iodine monochloride. Confluent cells grown on 12-well plates were incubated for 3 hours at 4° C. with the indicated concentration of the unlabeled competitor peptide in αMEM media plus 10 mg/ml of BSA (FIG. 7). […] Cells were washed three times, and cell bound counts were determined after solubilization with 0.1 N NaOH.
A two-step sequential competitive binding assay was performed in order to prevent any potentially interfering interaction of the radiolabeled peptide with the competitor proteins (Mendez et al., J. Clin. Invest. 94:1698-1705, 1994). The cells were first incubated with the competitor proteins for 3 hours, washed, and then the cell binding of the radiolabeled L-37 peptide was measured. […]

[6] = 10 μg/ml, 30 hour efflux period

## CC(C)C[C@@H](NC(=O)[C@@H](Cc1c[nH]c2ccccc12)NC(=O)[C@H](N)CC(=O)O)C(=O)N[C@H](CCCCN)C(=O)N[C@H](C)C(=O)N[C@H](Cc1ccccc1)C(=O)N[C@H](Cc1ccc(O)cc1)C(=O)N[C@H](CC(=O)O)C(=O)N[C@H](CCCCN)C(=O)N[C@@H](C(=O)N[C@H](C)C(=O)N[C@H](CCC(=O)O)C(=O)N[C@H](CCCCN)C(=O)N[C@H](CC(C)C)C(=O)N[C@H](CCCCN)C(=O)N[C@H](CCC(=O)O)C(=O)N[C@H](C)C(=O)N[C@H](Cc1ccccc1)C(=O)N1CCC[C@@H]1C(=O)N[C@H](CC(=O)O)C(=O)N[C@H](Cc1c[nH]c2ccccc12)C(=O)N[C@H](CC(C)C)C(=O)N[C@H](CCCCN)C(=O)N[C@H](C)C(=O)N[C@H](Cc1ccccc1)C(=O)N[C@H](Cc1ccc(O)cc1)C(=O)N[C@H](CC(=O)O)C(=O)N[C@H](CCCCN)C(=O)N[C@@H](C(=O)N[C@H](C)C(=O)N[C@H](CCC(=O)O)C(=O)N[C@H](CCCCN)C(=O)N[C@H](CC(C)C)C(=O)N[C@H](CCCCN)C(=O)N[C@H](CCC(=O)O)C(=O)N[C@H](C)C(=O)N[C@H](Cc1ccccc1)C(=O)O)C(C)C)C(C)C [D-37pA] (H-[dD][dW][dL][dK][dA][dF][dY][dD][dK][dV][dA][dE][dK][dL][dK][dE][dA][dF][dP][dD][dW][dL][dK][dA][dF][dY][dD][dK][dV][dA][dE][dK][dL][dK][dE][dA][dF]-OH; N-terminus and C-terminus assumed)
ABCA1 cells [1]
  release of LDH from ABCA1 cells, percentage of total cell LDH: 5.7%±0.1
Control cells
  release of LDH from control cells, percentage of total cell LDH: 6.6%±0.1

## DWLKAFYDKVAEKLKEAFPDLYSKSTAAMSTYTGIFTDQVLSVLKGEE [18A-C-II]
C57B1/6 mice
  increase in plasma triglycerides induced by free 5A peptide (60 mg/kg IV): significantly reduced; also recorded: significantly halted
BHK and BHK-ABCA1 cells
  cholesterol efflux, BHK-ABCA1 versus BHK cells: significant difference

## NP-40 [reference compound]
[2]
  cholesterol efflux from ABCA1 cells to detergent: Nearly identical results

## C[C@H](CCC(=O)NCCS(=O)(=O)O)[C@H]1CC[C@H]2[C@@H]3CC[C@@H]4C[C@H](O)CC[C@]4(C)[C@H]3C[C@H](O)[C@]12C [taurodeoxycholate, reference compound]
[2]
  cholesterol efflux from ABCA1 cells to detergent: small amount of cholesterol efflux
[3]; taurodeoxycholate 0.02%, 1 hour
  cholesterol efflux from control cells to detergent: Approximately the same amount

## DWLKAFYDKVAEKLKEAFPDWLKAFYDKVAEKLKEAF [L-37pA]
ABCA1 cells [1]
  release of LDH from ABCA1 cells, percentage of total cell LDH: 4.3%±0.04
Control cells
  release of LDH from control cells, percentage of total cell LDH: 6.1%±0.2

## DWLKAFYDKVAEKLKEAFPDWLKAAYDKVAEKAKEAA [3A]
Red blood cells
  red blood cells lysed (hemolysis): moderate degree of hemolysis

## C[C@H](CCC(=O)NCCC[N+](C)(C)CCCS(=O)(=O)[O-])[C@H]1CC[C@H]2[C@@H]3[C@H](O)C[C@@H]4C[C@H](O)CC[C@]4(C)[C@H]3C[C@H](O)[C@]12C [CHAPS, reference compound]
[2]
  cholesterol efflux from ABCA1 cells to detergent: Nearly identical results

## DWLKAFYDKVAEKLKEAFPDWLKAAYDKAAEKAKEAA [4A]
Red blood cells
  red blood cells lysed (hemolysis): no appreciable hemolysis

## DWLKAFYDKVAEKLKEAFPDWLKAFYDKVAEKAKEAA [2A]
Red blood cells
  red blood cells lysed (hemolysis): moderate degree of hemolysis

## DWLKAFYDKVAEKLKEAFPDWLKAFYDKVA EKLKEAF [37pA, reference compound]
[2]; 18 hours
  lipid (cholesterol and phospholipid) efflux from ABCA1 cells: promoted ABCA1-mediated cholesterol efflux
[3]
  lipid (cholesterol and phospholipid) efflux from control cells: also able to mediate cholesterol efflux

## apoA-I: apolipoprotein A-I, the predominant protein constituent of HDL
[4]
  cholesterol efflux from Tangier disease fibroblasts: did not efflux significant amounts
[2]; 10 μg/ml, 18 hours, 3% paraformaldehyde
  cholesterol efflux from ABCA1 cells after fixation with paraformaldehyde: completely blocked
[2]; [6]
  time at which cholesterol efflux from ABCA1 cells was first detectable: 2 h
[2]; 18 hours
  lipid (cholesterol and phospholipid) efflux from ABCA1 cells: do so after transfection with ABCA1
  protein concentration at which lipid efflux began to show saturation: ~10 µg/mL
[2]; corresponds to 10 μg/ml
  molar concentration at which lipid efflux began to show saturation: 0.36 µM
Normal skin fibroblasts
  cholesterol efflux from normal fibroblasts: effluxed cholesterol
[3]; [6]
  cholesterol efflux from control cells over the time course: no significant increase above background
[3]
  lipid (cholesterol and phospholipid) efflux from control cells: do not efflux significant amounts; also recorded: unable
ABCA1 cells [5]
  binding of labeled L-37pA to ABCA1 cells blocked by competitor: approximately 30%

## RMRITERDDFRGQMSEITDDCPSLQDRFHLTEVHSLRVLEGS (Gamma crystalline peptide.) [contains two non-amphipathic alpha helices, reference compound]
[2]; 18 hours
  lipid (cholesterol and phospholipid) efflux from ABCA1 cells: completely ineffective
[3]
  lipid (cholesterol and phospholipid) efflux from control cells: completely ineffective

## DWLKAFYDKVAEKLKEAFPDWLKAFYDKVAEKAKEAF [1A]
Red blood cells
  red blood cells lysed (hemolysis): moderate degree of hemolysis

## DWLKAFYDKVAEKLKEAFPDWAKAAYDKAAEKAKEAA [5A]
Red blood cells
  red blood cells lysed (hemolysis): no appreciable hemolysis
